For series [1], the system named is CYP2B.
Procedure: (§1) Primary rat hepatocytes from 6-well plates or chamber slides were lysed and scraped in SDS buffered (10 mM Tris/HCl (ph 7.4), 0.1% SDS). Samples were added to microcentrifuge tubes with 5 μl of PMSF, homogenized with a pestle, and centrifuged at 16,200 g for 5 minutes. Total protein content in the supernatant was determined using the DC protein assay (Bio-Rad, Hercules, Calif.) and used to normalize sample loading. Samples prepared in sample buffer were loaded (10-20 μg/well) for electrophoresis on a 10% polyacrylamide gel. After overnight transfer on to a PVDF membrane, blots were incubated with a blocking buffered (20 mM Tris-Cl (pH 7.4), 500 mM NaCl, 0.1% Tween 20, and 5% (w/v) milk powder) and washed with buffer without milk powder, incubation for 1 h with primary antibody against rat PEPCK or rat CYP2B (Genset, Woburn, Mass.) was followed by washing and incubation with either anti-sheep (PEPCK) or anti-goat (CYP2B) HRP-conjugated secondary antibody for 45 minutes. After washing, the Pierce SuperSignal chemiluminescence reagent was used for detection. All electrophoresis gels were run with molecular mass markers to verify PEPCK bands (67 kDa) or CYP2B1/2 bands (56 kDa). Optical density measurements were obtained using scanned blot images with 1d gelscan software (Metamorph).
The next series relates to CYP3A. Nature of the series: CYP3A protein induction in static and perfused co-cultures, Western blot. A general note: Immunoblotting shows a protein as a band on a membrane.
Series [2] relates to CYP2B. Kind of series: Zonal induction of CYP2B in hepatocyte bioreactor under oxygen gradient, Western blot.
Procedure: Bioreactor cultures were perfused with media and allowed to reach steady state before the addition of inductive agents of glucagon for PEPCK up-regulation or phenobarbitol (PB) and EGF for CYP2B1 induction. […] Media with 0.75 mM PB and 0.16 nM EGF was perfused for 36 h to induced CYB2B expression before cell lysis. Cell lysates were collected at the end of each experiment for electrophoretic analysis.
Primary rat hepatocytes from 6-well plates or chamber slides were lysed and scraped in SDS buffered (10 mM Tris/HCl (ph 7.4), 0.1% SDS). Samples were added to microcentrifuge tubes with 5 μl of PMSF, homogenized with a pestle, and centrifuged at 16,200 g for 5 minutes. Total protein content in the supernatant was determined using the DC protein assay (Bio-Rad, Hercules, Calif.) and used to normalize sample loading. Samples prepared in sample buffer were loaded (10-20 μg/well) for electrophoresis on a 10% polyacrylamide gel.
Series [3] relates to CYP2B. Nature of the series: CYP2B protein induction in static and perfused co-cultures, Western blot.
Procedure: as §1
The subject of another series is PEPCK. Nature of the series: Zonal induction of PEPCK in hepatocyte bioreactor under oxygen gradient, Western blot. It is filed as cell-based, rat. The source says: Hepatocyte Isolation And Culture.
Bioreactor And Flow Circuit.

[4] abbreviates: cultures perfused with 200 μM PB, 36 hours.
Setting [5] is: static cultures induced with PB.

As to `C[C@@H]1C[C@H]2[C@@H]3CCC4=CC(=O)C=C[C@]4(C)[C@@]3(F)[C@@H](O)C[C@]2(C)[C@@]1(O)C(=O)CO` [DEX, dexamethasone], the “CYP2B induction and localization” value with CYP2B [1] is reported as “high levels which were localized to inlet regions”.

On to `CCC1(c2ccccc2)C(=O)NC(=O)NC1=O` [PB, phenobarbital], for which, in the series on CYP3A (setting [4]), the “CYP3A expression over controls” value was “Dramatic expression of both CYPs over controls” and the “CYP3A spatial distribution along bioreactor” value is “increasing expression from inlet to outlet”. Also, the CYP3A expression entry in the series with CYP3A (setting [5]) is listed as “low CYP3A”. In the series with CYP2B [2] (0.75 mM PB with 0.16 nM EGF, 36 h, inlet pO2 76 mmHg, 0.5 mL/min (physiologic gradient)), the “CYP2B induction along the chamber” value is recorded as “increasing CYP2B induction along the length of the chamber”. In the series with CYP2B [2] (PB with EGF, supraphysiologic oxygen gradient, same flow rate), the “CYP2B levels from inlet to outlet” value is recorded as “did not result in significant differences in CYP2B levels from inlet to outlet”. Also, in the series on CYP2B [3] (setting [4]), the “CYP2B expression over controls” value is on record as “Dramatic expression of both CYPs over controls” and the “CYP2B spatial distribution along bioreactor” value was “levels were highest in the lower-oxygen outlet regions”. The CYP2B expression entry with CYP2B [3] (setting [5]) is listed as “moderate CYP2B expression”.

Regarding glucagon, in the series on PEPCK (10 nM glucagon 8 h, inlet pO2 76 mmHg, 0.5 mL/min (physiologic gradient)), the “PEPCK protein levels in 4 bioreactor regions” value is reported as “maximal PEPCK protein levels at the inlet decreasing to half maximal at the outlet”. Besides, in the series with PEPCK (10 nM glucagon, inlet pO2 158 mmHg, 0.5 ml/min (supraphysiologic gradient)), the PEPCK induction distribution entry was “heterogenous induction of PEPCK was abrogated”.

Values taken from US20060258000A1, “Use of steady-state oxygen gradients to modulate animal cell functions” (priority 2003, published 2006).
